Data as given in the CheMixHub ionic liquid set.
± gives the uncertainty stated by the source.

Test: xn = mol fraction of the nth substance listed
Conditions: 100 kPa

CC[n+]1ccn(C)c1.O=S(=O)([O-])C(F)(F)F + CN(C)C=O + OCCO
viscosity [mPa·s]
Conditions	298.15 K	303.15 K	308.15 K	313.15 K	318.15 K	323.15 K
x2 = 0.0208, x3 = 0.1868	29.3 ± 0.69	24.8 ± 0.67	21.15 ± 0.65	18.23 ± 0.64	15.83 ± 0.63	13.8 ± 0.62
x2 = 0.0306, x3 = 0.198	27.9 ± 0.68	23.6 ± 0.66	20.16 ± 0.64	17.39 ± 0.63	15.11 ± 0.62	13.18 ± 0.62
x2 = 0.0398, x3 = 0.2206	25.8 ± 0.67	21.9 ± 0.65	18.69 ± 0.64	16.15 ± 0.63	14.06 ± 0.62	12.27 ± 0.62
x2 = 0.0679, x3 = 0.2281	23.5 ± 0.65	20 ± 0.64	17.13 ± 0.63	14.83 ± 0.62	12.93 ± 0.62	11.29 ± 0.61
x2 = 0.0847, x3 = 0.2475	21.3 ± 0.64	18.2 ± 0.63	15.61 ± 0.62	13.54 ± 0.62	11.83 ± 0.61	10.34 ± 0.61
x2 = 0.1005, x3 = 0.2658	19.4 ± 0.64	16.5 ± 0.63	14.24 ± 0.62	12.39 ± 0.61	10.85 ± 0.61	9.48 ± 0.61
x2 = 0.1248, x3 = 0.2717	17.7 ± 0.63	15.2 ± 0.62	13.09 ± 0.62	11.41 ± 0.61	10.01 ± 0.61	8.76 ± 0.61
x2 = 0.1637, x3 = 0.2744	15.6 ± 0.62	13.4 ± 0.62	11.59 ± 0.61	10.14 ± 0.61	8.92 ± 0.61	7.81 ± 0.61
x2 = 0.1852, x3 = 0.2798	14.3 ± 0.62	12.3 ± 0.61	10.67 ± 0.61	9.35 ± 0.61	8.25 ± 0.61	7.23 ± 0.6
x2 = 0.2057, x3 = 0.2849	13.1 ± 0.62	11.3 ± 0.61	9.84 ± 0.61	8.64 ± 0.61	7.64 ± 0.61	6.7 ± 0.6
x2 = 0.2567, x3 = 0.2666	11.6 ± 0.61	10.1 ± 0.61	8.83 ± 0.61	7.78 ± 0.61	6.9 ± 0.6	6.06 ± 0.6
x2 = 0.3179, x3 = 0.2469	9.96 ± 0.61	8.69 ± 0.61	7.63 ± 0.61	6.76 ± 0.6	6.02 ± 0.6	5.29 ± 0.6
x2 = 0.3633, x3 = 0.2306	8.7 ± 0.61	7.63 ± 0.61	6.74 ± 0.61	6 ± 0.6	5.34 ± 0.6	4.85 ± 0.6
x2 = 0.4128, x3 = 0.2106	7.83 ± 0.61	6.89 ± 0.6	6.11 ± 0.6	5.45 ± 0.6	4.89 ± 0.6	4.31 ± 0.6
x2 = 0.469, x3 = 0.1967	6.48 ± 0.6	5.75 ± 0.6	5.13 ± 0.6	4.61 ± 0.6	4.16 ± 0.6	3.68 ± 0.6
x2 = 0.5074, x3 = 0.1828	5.85 ± 0.6	5.22 ± 0.6	4.68 ± 0.6	4.22 ± 0.6	3.85 ± 0.6	3.19 ± 0.6
x2 = 0.5624, x3 = 0.1668	4.75 ± 0.6	4.27 ± 0.6	3.86 ± 0.6	3.51 ± 0.6	3.19 ± 0.6	2.84 ± 0.6
x2 = 0.6135, x3 = 0.152	3.92 ± 0.6	3.55 ± 0.6	3.24 ± 0.6	2.96 ± 0.6	2.71 ± 0.6	2.43 ± 0.6
x2 = 0.6611, x3 = 0.1382	3.32 ± 0.6	3.02 ± 0.6	2.76 ± 0.6	2.53 ± 0.6	2.32 ± 0.6	2.15 ± 0.6
x2 = 0.7126, x3 = 0.1243	2.61 ± 0.6	2.41 ± 0.6	2.23 ± 0.6	2.07 ± 0.6	1.92 ± 0.6	1.74 ± 0.6
x2 = 0.7536, x3 = 0.1124	2.33 ± 0.61	2.14 ± 0.61	1.98 ± 0.6	1.83 ± 0.6	1.7 ± 0.6	1.58 ± 0.6
x2 = 0.7982, x3 = 0.1005	1.83 ± 0.61	1.7 ± 0.61	1.59 ± 0.61	1.49 ± 0.6	1.4 ± 0.6	1.29 ± 0.6
x2 = 0.8449, x3 = 0.0889	1.53 ± 0.6	1.42 ± 0.6	1.33 ± 0.6	1.24 ± 0.6	1.17	1.09
x2 = 0.8948, x3 = 0.0712	1.22 ± 0.6	1.14	1.07	1.01	0.95	0.89
